Here are results for 49 compounds from US7807663B2, “Therapeutic agents for diabetes” (Ajinomoto Co., Inc., priority 2003, dated 2010).

≈ marks a conversion by molar mass, not a printed value.

The first assay concerns adipose cells of rats. In words: Evaluation of the sugar transportation activity (2-[14C(U)]-deoxy-D-glucose incorporation). Type of assay: cell-based, Wistar rats. To be noted: concentration with reinforcing effect of 50% of that of insulin (100 nM) = 100%; rat adipose cells, 30 min pre-culture at 37° C., 5 min uptake. The protocol:
1. Preparation of Adipose Cells of Rats:
After the decapitation and venesection of 6 male Wistar rats (body weight: 150 to 200 g), an incision was made in the abdomen of each rat to extract 6 g in total of epididymal adipose tissues. The tissues were finely cut into 2 mm×2 mm pieces in 6 ml of KRH (Krebs-Ringer Hepes, composition: 130 mM of sodium chloride, 4.7 mM of potassium chloride, 1.2 mM of potassium dihydrogenphosphate, 1.2 mM of magnesium sulfate, 1 mM of calcium chloride and 25 mM of Hepes, pH=7.6) containing 5% of BSA (bovine serum albumin). 24 mg of collagenase (type I) was added thereto and the digestion treatment was conducted for about 40 minutes to obtain about 6 ml of isolated adipose cells. The collagenase was removed by the buffer exchange. 2% BSA/KRH solution was added to the residue for the re-suspension to obtain 45 ml of an adipose cell suspension.
2. Evaluation of the Sugar Transportation Activity:
The sugar transportation activity of the compound (I) of the present invention was evaluated with reference to a method described in a literature [Annual Review of Biochemistry, Vol. 55, p. 1059 (1986)]. In the test, 200 μL of the adipose cell suspension was poured in each polystyrene test tube, 100 μL of the solution of the test substance (by dilution of 10 mg/mL dimethyl sulfoxide solution with KRH) was added thereto, and the obtained mixture was shaken and then cultured at 37° C. for 30 minutes. The sugar transportation activity was evaluated by measuring the quantity of 2-[^14C(U)]-deoxy-D-glucose incorporated per a unit time. Namely, 2-[^14C(U)]-deoxy-D-glucose was added to the adipose cell suspension after the pre-culture (the final concentration: 0.5 μCi/sample). 5 minutes after, cytochalasin B (final concentration: 10 μM) was added to the mixture to terminate the sugar transportation. After forming a dinonyl phthalate layer, the obtained mixture was centrifuged to separate the adipose cells from the buffer. The quantity of 2-[^14C(U)]-deoxy-D-glucose contained in the adipose cell layer was determined with a liquid scintillation counter to determine the quantity of the incorporated sugar. In this evaluation system, when insulin (100 nM) having the effect of reinforcing the sugar transportation was used, the effect was about 7 times as high as that obtained in the insulin-free control group.
The results of the evaluation of the sugar transportation activity obtained by using 100 μg/mL of the compound (I) of the present invention are shown in Table 3. The sugar transportation activity in Table 3 was evaluated on the basis of the reinforcing effect of insulin (100 nM). The sugar transportation activity A in Table 3 was determined in terms of the concentration (EC50: μg/mL) of a test compound, having a reinforcing effect corresponding to 50% on the basis of the reinforcing effect of insulin (100 nM) having a reinforcing effect of 100%.
The symbols in Table 3 are as follows: • No: Compound No. in Tables 1 and 2, and • A: sugar transportation activity.
As to `COc1ccccc1[C@@H]1C2=C(CNC2=O)N[C@@H]2CCCC[C@H]2N1C(=O)C1CC1` [Compound 4], the “A: sugar transportation activity (EC50)” value turned out to be 0.5 µg/mL.

For the compound `CCCC(=O)N1[C@@H]2CCCC[C@H]2NC2=C(C(=O)NC2)[C@H]1c1ccccc1Cl` [Compound 117], the “A: sugar transportation activity (EC50)” value came out at 4 µg/mL. On the same count and under the same terms, under `CCOc1ccccc1[C@@H]1C2=C(CNC2=O)N[C@@H]2CCCC[C@H]2N1C(=O)CO` [Compound 51] stands 3.8 µg/mL; under `COC(=O)N1[C@@H]2CCCC[C@H]2NC2=C(C(=O)NC2)[C@H]1c1ccccc1OC(C)C` [Compound 60], 4.8 µg/mL; under `CCOC(=O)N1[C@@H]2CCCC[C@H]2NC2=C(C(=O)NC2)[C@H]1c1ccccc1OCC` [Compound 55], 7 µg/mL.

Consider `CCOc1ccccc1[C@@H]1C2=C(CNC2=O)N[C@@H]2CCCC[C@H]2N1C(=O)OC` [Compound 54], for which the “A: sugar transportation activity (EC50)” value was determined as 1.5 µg/mL. The same measure, in the same setting: under `CC(=O)N1[C@@H]2CCCC[C@H]2NC2=C(C(=O)NC2)[C@H]1c1ccccc1OC(C)C` [Compound 57] stands 14 µg/mL; under `CCOc1ccccc1[C@@H]1C2=C(CNC2=O)N[C@@H]2CCCC[C@H]2N1C(=O)COC` [Compound 52], 3.6 µg/mL. On the same count and under the same terms, the figure for `CC(=O)N1[C@@H]2CCCC[C@H]2NC2=C(C(=O)NC2)[C@H]1c1ccccc1OCc1ccccc1` [Compound 64] is 3.6 µg/mL; for `CCOC(=O)N1[C@@H]2CCCC[C@H]2NC2=C(C(=O)NC2)[C@H]1c1ccccc1C` [Compound 89] it is 7 µg/mL; for `COc1ccc(F)cc1[C@@H]1C2=C(CNC2=O)N[C@@H]2CCCC[C@H]2N1C(C)=O` [Compound 76] it is 10 µg/mL. Still for that read-out and setting: the figure for `COCCC(=O)N1[C@@H]2CCCC[C@H]2NC2=C(C(=O)NC2)[C@H]1c1ccccc1OC` [Compound 24] is 3.4 µg/mL; for `COc1ccccc1[C@@H]1C2=C(CNC2=O)N[C@@H]2CCCC[C@H]2N1C(=O)C(F)(F)C(F)(F)F` [Compound 7] it is 9.5 µg/mL; for `COc1ccccc1[C@@H]1C2=C(CNC2=O)N[C@@H]2CCCC[C@H]2N1C(=O)CCc1ccccc1` [Compound 25] it is 0.9 µg/mL. As to `CC(=O)N1[C@@H]2CCCC[C@H]2NC2=C(C(=O)NC2)[C@H]1c1ccccc1O` [Compound 66], the “A: sugar transportation activity (EC50)” value was 3.7 µg/mL. Turning to `COC(=O)N1[C@@H]2CCCC[C@H]2NC2=C(C(=O)NC2)[C@H]1c1ccccc1F` [Compound 127], the “A: sugar transportation activity (EC50)” value was 2 µg/mL. Same read-out and setting: under `CCC(=O)N1[C@@H]2CCCC[C@H]2NC2=C(C(=O)NC2)[C@H]1c1ccccc1F` [Compound 124] stands 2 µg/mL; under `COc1ccccc1[C@@H]1C2=C(CNC2=O)N[C@@H]2CCCC[C@H]2N1C(=O)c1cnccn1` [Compound 36], 8.6 µg/mL; under `CCCNC(=O)N1[C@@H]2CCCC[C@H]2NC2=C(C(=O)NC2)[C@H]1c1ccccc1OC` [Compound 42], 7 µg/mL. Still for that read-out and setting: the figure for `CCOc1ccccc1[C@@H]1C2=C(CNC2=O)N[C@@H]2CCCC[C@H]2N1C(=O)CC` [Compound 47] is 1.9 µg/mL; for `COc1ccccc1[C@@H]1C2=C(CNC2=O)N[C@@H]2CCCC[C@H]2N1C(=O)CCSC` [Compound 28] it is 2.6 µg/mL. The same measure, in the same setting: under `CC(=O)N1[C@@H]2CCCC[C@H]2NC2=C(C(=O)NC2)[C@H]1c1ccc(Br)cc1` [Compound 139] stands 17 µg/mL; under `COc1ccccc1[C@@H]1C2=C(CNC2=O)N[C@@H]2CCCC[C@H]2N1C(=O)Oc1ccccc1` [Compound 40], 11 µg/mL; under `CCOCC(=O)N1[C@@H]2CCCC[C@H]2NC2=C(C(=O)NC2)[C@H]1c1ccc(Cl)cc1` [Compound 141], 6 µg/mL. In the case of `COC(=O)N1[C@@H]2CCCC[C@H]2NC2=C(C(=O)NC2)[C@H]1c1ccccc1C` [Compound 90], the “A: sugar transportation activity (EC50)” value is 2 µg/mL. The same measure, in the same setting: the figure for `CC(=O)N1[C@@H]2CCCC[C@H]2NC2=C(C(=O)NC2)[C@H]1c1cccc(F)c1C` [Compound 107] is 6 µg/mL.

Regarding `CCCC(=O)N1[C@@H]2CCCC[C@H]2NC2=C(C(=O)NC2)[C@H]1c1ccccc1OC` [Compound 3], the “A: sugar transportation activity (EC50)” value came to 4.6 µg/mL.

Consider `CCc1ccccc1[C@@H]1C2=C(CNC2=O)N(CC)[C@@H]2CCCC[C@H]2N1C(C)=O` [Compound 102], for which the “A: sugar transportation activity (EC50)” value came to 5 µg/mL.

Regarding `COC(=O)N1[C@@H]2CCCC[C@H]2NC2=C(C(=O)NC2)[C@H]1c1ccccc1` [Compound 133], the “A: sugar transportation activity (EC50)” value came out at 2 µg/mL. Same read-out and setting: the figure for `CCOc1ccccc1[C@@H]1C2=C(CNC2=O)N[C@@H]2CCCC[C@H]2N1C(=O)COC(C)=O` [Compound 50] is 13 µg/mL. On to `CC(=O)N1[C@@H]2CCCC[C@H]2NC2=C(C(=O)NC2)[C@H]1c1ccccc1OC1CC1` [Compound 61], for which the “A: sugar transportation activity (EC50)” value was determined as 0.9 µg/mL. Same read-out and setting: the figure for `CCC(=O)N1[C@@H]2CCCC[C@H]2NC2=C(C(=O)NC2)[C@H]1c1ccccc1OC(C)C` [Compound 58] is 2 µg/mL. On the same count and under the same terms, the figure for `O=C1NCC2=C1[C@@H](c1ccccc1Br)N(C(=O)CC(F)(F)F)[C@@H]1CCCC[C@H]1N2` [Compound 109] is 0.5 µg/mL. On the same count and under the same terms, under `COc1ccccc1[C@@H]1C2=C(CNC2=O)N[C@@H]2CCCC[C@H]2N1C(=O)COC(C)=O` [Compound 9] stands 5.9 µg/mL. Regarding `CCOCC(=O)N1[C@@H]2CCCC[C@H]2NC2=C(C(=O)NC2)[C@H]1c1ccccc1OC` [Compound 11], the “A: sugar transportation activity (EC50)” value turned out to be 2.2 µg/mL. Still for that read-out and setting: the figure for `Cc1ccccc1[C@@H]1C2=C(CNC2=O)N[C@@H]2CCCC[C@H]2N1C(=O)C(F)(F)F` [Compound 82] is 6 µg/mL; for `CCOCC(=O)N1[C@@H]2CCCC[C@H]2NC2=C(C(=O)NC2)[C@H]1c1ccccc1OCc1ccccc1` [Compound 63] it is 4 µg/mL.

For `CCCC(=O)N1[C@@H]2CCCC[C@H]2NC2=C(C(=O)NC2)[C@H]1c1ccccc1OCC` [Compound 48], the “A: sugar transportation activity (EC50)” value is 1.3 µg/mL. Still for that read-out and setting: under `COC(=O)N1[C@@H]2CCCC[C@H]2NC2=C(C(=O)NC2)[C@H]1c1ccccc1OC` [Compound 37] stands 6 µg/mL; under `CC(=O)N1[C@@H]2CCCC[C@H]2NC2=C(C(=O)NC2)[C@H]1c1ccccc1N` [Compound 136], 12 µg/mL; under `CCC(=O)N1[C@@H]2CCCC[C@H]2NC2=C(C(=O)NC2)[C@H]1c1ccccc1Br` [Compound 110], 1.5 µg/mL. The EC50 is the concentration that produces a half-maximal response. For the compound `CC(=O)N1[C@@H]2CCCC[C@H]2NC2=C(C(=O)NC2)[C@H]1c1ccc(Br)s1` [Compound 144], the midpoint of the response, the EC50, lay at 19 µg/mL (≈ 46.3 µM).

As for `O=C1NCC2=C1[C@@H](c1ccccc1C1CC1)N(C(=O)CO)[C@@H]1CCCC[C@H]1N2` [Compound 104], the “A: sugar transportation activity (EC50)” value was found to be 0.8 µg/mL.

Consider `O=C1NCC2=C1[C@@H](c1ccccc1OC(F)(F)F)N(C(=O)CO)[C@@H]1CCCC[C@H]1N2` [Compound 68], for which the “A: sugar transportation activity (EC50)” value stood at 2.7 µg/mL. Same read-out and setting: the figure for `COc1ccccc1[C@@H]1C2=C(CNC2=O)N[C@@H]2CCCC[C@H]2N1C(=O)CCN` [Compound 23] is 8 µg/mL. With `COC(=O)N1[C@@H]2CCCC[C@H]2NC2=C(C(=O)NC2)[C@H]1c1ccccc1Cl` [Compound 122], the “A: sugar transportation activity (EC50)” value was determined as 2.4 µg/mL. On the same count and under the same terms, under `CC(=O)OCC(=O)N1[C@@H]2CCCC[C@H]2NC2=C(C(=O)NC2)[C@H]1c1ccccc1C` [Compound 85] stands 8 µg/mL; under `CCOCC(=O)N1[C@@H]2CCCC[C@H]2NC2=C(C(=O)NC2)[C@H]1c1ccccc1OC(C)C` [Compound 59], 2 µg/mL.

Staying with this assay, now noted: insulin 100 nM; rat adipose cells.
insulin [reference compound]: the “effect of reinforcing the sugar transportation relative to insulin-free control group” value is recorded as “about 7 times”.
